Test results published in ChEMBL document CHEMBL5608179, “Triptonide induces apoptosis and inhibits the proliferation of ovarian cancer cells by activating the p38/p53 pathway and autophagy” (Bioorg Med Chem, 2024).
The source made the active and inactive calls. The calls are words filed in the database; no cut-off is given here.

What was measured:
A2780 [1] = assay: Induction of cell cycle arrest at S phase in human A2780 cells assessed as increase in cyclin E1 proteins in presence of SB203580 measured at 10 nM after 24 hrs by Western blot analysis; format: functional, cell-based
A2780 [2] = assay: Induction of apoptosis in human A2780 cells assessed as late apoptotic cells at 8 nM measured after 24 to 72 hrs by Annexin V-FITC/PI flow cytometry (reference value: 2.54%); format: functional; settings: time 24-72 hrs
[3] = Toxicity in BALB/c-nu mouse subcutaneously inoculated with human A2780 cells assessed as morphological changes of spleen at 3 to 5 mg/kg, ip administered every day for 20 days by HE staining analysis; format: organism-based; settings: in vivo, sc, 480 h, dose 3-5 mg/kg, time 20 day
A2780 [4] = assay: Induction of cell cycle arrest in human A2780 cells assessed as accumulation of cells at S phase at 2 nM measured after 24 hrs by PI staining based ell Cycle Analysis Kit (KeyGEN) (reference value: 10%); format: functional
A2780 [5] = assay: Induction of apoptosis in human A2780 cells assessed as necrotic cells at 4 nM measured after 24 hrs by Annexin V-FITC/PI flow cytometry (reference value: 0.39%); format: functional
A2780 [6] = assay: Induction of apoptosis in human A2780 cells assessed as increase in cleaved caspase 3 level measured after 12 to 48 hrs by Western blot analysis; format: functional, cell-based; settings: dose 5-20 nM, time 12-48 hrs
A2780 [7] = assay: Induction of apoptosis in human A2780 cells assessed as increase in cleaved caspase 3 level measured at 5 to 20 nM by Western blot analysis; format: functional, cell-based; settings: dose 5-20 nM, time 12-48 hrs, TDE = time-dependent effect
[8] = target: Cellular tumor antigen p53 (Homo sapiens) (UniProt P04637); assay: Activation of p53 in human A2780 cells assessed as increase phosphorylation of p38 at 5 to 20 nM measured after 24 hrs by Western blot analysis; format: cell-based; settings: filed as activator, dose 5-20 nM
A2780 [9] = assay: Induction of apoptosis in human A2780 cells assessed as viable cells in presence of bafilomycin A1 at 800 nM measured after 24 hrs by Annexin V-FITC/PI flow cytometry (reference value: 96.1%); format: functional
A2780 [10] = assay: Induction of cell cycle arrest in human A2780 cells assessed as accumulation of cells at G1 phase at 4 nM measured after 24 hrs by PI staining based ell Cycle Analysis Kit (KeyGEN) (reference value: 53.9%); format: functional
A2780 [11] = assay: Cytotoxicity against human A2780 cells assessed as cell viability in presence of p53 SiRNA 2 measured after 48 hrs by MTT assay; format: functional, cell-based
A2780 [12] = assay: Induction of apoptosis in human A2780 cells assessed as late apoptotic cells in presence of SB203580 at 8 nM measured after 24 to 72 hrs by Annexin V-FITC/PI flow cytometry (reference value: 2.54%); format: functional; settings: time 24-72 hrs
A2780 [13] = assay: Antiproliferative activity against human A2780 cells assessed as number of fluorescent dots in presence of p53 SiRNA 1 in presence of bafilomycin A1 at 4 nM measured after 24 hrs by KitkFluor555 Click-iT EdU Kit staining assay; format: functional, cell-based
A2780 [14] = assay: Cytotoxicity against human A2780 cells assessed as cell viability measured in presence of SB203580 after 48 hrs by MTT assay; format: functional, cell-based
A2780 [15] = assay: Induction of apoptosis in human A2780 cells assessed as necrotic cells at 8 nM measured after 24 to 72 hrs by Annexin V-FITC/PI flow cytometry (reference value: 0.39%); format: functional; settings: time 24-72 hrs
A2780 [16] = assay: Induction of apoptosis in human A2780 cells assessed as increase in cleaved PARP level measured at 5 to 20 nM by Western blot analysis; format: functional, cell-based; settings: dose 5-20 nM, time 12-48 hrs, TDE = time-dependent effect
A2780 [17] = assay: Cytotoxicity against human A2780 cells assessed as cell viability measured at 4 to 64 nM by MTT assay; format: functional, cell-based; settings: dose 4-64 nM, time 24-72 hrs, TDE = time-dependent effect
A2780 [18] = assay: Induction of cell cycle arrest in human A2780 cells assessed as accumulation of cells at G1 phase at 1 nM measured after 24 hrs by PI staining based ell Cycle Analysis Kit (KeyGEN) (reference value: 53.9%); format: functional
A2780 [19] = assay: Induction of cell cycle arrest in human A2780 cells assessed as accumulation of cells at G2 phase in presence of SB203580 at 4 nM measured after 24 hrs by PI staining based Cell Cycle Analysis Kit (KeyGEN) (reference value: 24.5%); format: functional
A2780 [20] = assay: Induction of cell cycle arrest in human A2780 cells assessed as accumulation of cells at G1 phase at 2 nM measured after 24 hrs by PI staining based ell Cycle Analysis Kit (KeyGEN) (reference value: 53.9%); format: functional
A2780 [21] = assay: Induction of cell cycle arrest at S phase in human A2780 cells assessed as increase in CDK2 proteins measured after 24 hrs by Western blot analysis; format: functional, cell-based; settings: dose 5-20 nM
A2780 [22] = assay: Induction of apoptosis in human A2780 cells assessed as early apoptotic cells at 4 nM measured after 24 hrs by Annexin V-FITC/PI flow cytometry (reference value: 2.82%); format: functional
A2780 [23] = assay: Inhibition of colony formation in human A2780 cells in presence of SB203580 at 0.25 nM incubated for 48 hrs by crystal violet staining based colony counting method; format: functional, cell-based
A2780 [24] = assay: Induction of cell cycle arrest in human A2780 cells assessed as accumulation of cells at G1 phase in presence of SB203580 at 4 nM measured after 24 hrs by PI staining based Cell Cycle Analysis Kit (KeyGEN) (reference value: 54.2%); format: functional
A2780 [25] = assay: Induction of apoptosis in human A2780 cells assessed as apoptotic rate measured after 24 to 72 hrs by Annexin V-FITC/PI flow cytometry; format: functional, cell-based; settings: dose 2-8 nM, time 24-72 hrs
[26] = Toxicity in BALB/c-nu mouse subcutaneously inoculated with human A2780 cells assessed as morphological changes of lung at 3 to 5 mg/kg, ip administered every day for 20 days by HE staining analysis; format: organism-based; settings: in vivo, sc, 480 h, dose 3-5 mg/kg, time 20 day
A2780 [27] = assay: Induction of apoptosis in human A2780 cells assessed as necrotic cells in presence of bafilomycin A1 at 800 nM measured after 24 hrs by Annexin V-FITC/PI flow cytometry (reference value: 0.18%); format: functional

Cellular tumor antigen p53 (Homo sapiens), sequence (P04637 whole entry, looked up): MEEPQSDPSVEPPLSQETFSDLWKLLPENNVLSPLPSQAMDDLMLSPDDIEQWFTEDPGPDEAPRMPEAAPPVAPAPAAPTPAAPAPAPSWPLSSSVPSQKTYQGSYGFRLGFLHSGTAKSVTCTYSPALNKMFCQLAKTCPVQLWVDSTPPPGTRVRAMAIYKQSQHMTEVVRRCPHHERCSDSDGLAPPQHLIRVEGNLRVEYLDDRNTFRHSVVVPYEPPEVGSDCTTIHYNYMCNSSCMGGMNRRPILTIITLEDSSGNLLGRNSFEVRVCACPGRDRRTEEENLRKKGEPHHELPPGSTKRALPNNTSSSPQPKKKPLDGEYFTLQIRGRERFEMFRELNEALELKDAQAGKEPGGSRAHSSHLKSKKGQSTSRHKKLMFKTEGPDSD

In the case of `CC(C)[C@]12O[C@H]1[C@@H]1O[C@]13[C@]1(O[C@H]1C[C@H]1C4=C(CC[C@@]13C)C(=O)OC4)[C@@H]2O` [TRIPTOLIDE], the Activity (A2780 [1]) was “inactive”, the Activity (A2780 [2]) was 20% and the Activity [3] was “Non-Toxic”. The Activity (A2780 [4]) was 19.9%, the Activity (A2780 [5]) was 9.88% and the Activity (A2780 [6]) was “Dose-Dependent Effect”. The Activity (A2780 [7]) was “Tde”, the Activity [8] was “Active” and the Activity (A2780 [9]) was 90.3%. The Activity (A2780 [10]) was 68.9%, the Activity (A2780 [11]) was “inactive” and the Activity (A2780 [12]) was 12%. For the same compound, the Activity (A2780 [13]) was “inactive”, the Activity (A2780 [14]) was “inactive” and the Activity (A2780 [15]) was 5.59%. The Activity (A2780 [16]) was “Tde”, the Activity (A2780 [17]) was “Tde” and the Activity (A2780 [18]) was 67.3%. The Activity (A2780 [19]) was 31.1%, the Activity (A2780 [20]) was 62.6% and the Activity (A2780 [21]) was “Dose-Dependent Effect”. The Activity (A2780 [22]) was 29.5%, the inhibition (A2780 [23]) was “inactive” and the Activity (A2780 [24]) was 48.7%. For the same compound, the Activity (A2780 [25]) was “Dose-Dependent Effect”, the Activity [26] was “Non-Toxic” and the Activity (A2780 [27]) was 0.75%.
